Here are results for 1 compound from US7795385B2, “Use of bombesin/gastrin-releasing peptide antagonists for the treatment of inflammatory conditions, acute lung injury and bipolar disorder” (Bexar Global, Inc., priority 2004, dated 2010).

Data set [1] deals with amphetamine (AMPH)-induced hyperactivity in rats. In words: Amphetamine-induced hyperactivity test (open field, model of mania). It is filed as in vivo, male Wistar rats. The note with it: RC-3095 0.1, 1.0 or 10.0 mg/kg i.p. On the procedure:
Animals. A total of 120 male Wistar rats (age, 2.5-3 months; weight, 220-340 g) from an inhouse breeding colony were used. They were housed in plastic cages, 5 to a cage, with water and food freely available, under a 12-h light/dark cycle (lights on at 7:00 h). All experimental procedures were performed in accordance with the NIH Guide for the Care and Use of Laboratory Animals and the Brazilian Society for Neuroscience and Behavior (SBNeC) recommendations for animal care.
Drugs and pharmacological procedures. d-amphetamine (AMPH, 2.0 mg/kg) and RC-3095 (a gift from Dr. J. Engel, Zentaris GmbH, Germany) were dissolved in saline (SAL, 0.9% NaCl). All solutions were prepared immediately prior to administration. Animals were given a 10 ml/kg intraperitoneal (i.p.) injection of SAL or RC-3095 (0.1, 1.0 or 10.0 mg/kg) followed by an i.p. injection of SAL or AMPH […] 30 min later. Thus, the resulting experimental groups were: SAL/SAL; SAL/AMPH, RC-3095 0.1 mg/kg/AMPH, RC-3095 1.0 mg/kg/AMPH, RC-3095 10.0 mg/kg/AMPH, RC 3095 0.1 mg/kg/SAL; RC-3095 1.0 mg/kg/SAL; and RC-3095 10.0 mg/kg/SAL.
Hyperactivity test. […] Crossings of the black lines and rearings performed were counted. […]
Statistical analysis. All data are presented as mean±S.E.M. Differences among experimental groups were determined by ANOVA. […]

The subject of data set [2] is patient with rheumatoid arthritis. In words: Administration to a patient with rheumatoid arthritis. It counts as in vivo, human. The note with it: 6 mg RC-3095 twice daily s.c. Here is the method:
The composition consists of a white lyophilised cake in a 4 ml injection vial. One injection vial will be reconstituted with 2 ml water for injection.
A patient with rheumatoid arthritis, started on March 22 with 6 mg of RC-3095, twice daily. Application subcutaneously.
At baseline visit the patient presented with joint pain grade 3, joint inflammation grade 2 and depression grade 2.
Before start with RC-3095 they were already taken methotrexate, subcutaneously, once a week, and corticosteroids.
They were followed every two weeks by physical examination and laboratorial exams.

For `CC(C)C[C@@H](CN[C@@H](CC(C)C)C(N)=O)NC(=O)[C@H](Cc1c[nH]cn1)NC(=O)CNC(=O)[C@@H](NC(=O)[C@H](C)NC(=O)[C@H](Cc1c[nH]c2ccccc12)NC(=O)[C@H](CCC(N)=O)NC(=O)[C@H]1Cc2c([nH]c3ccccc23)CN1)C(C)C` [RC-3095, H-D-Tpi-Gln-Trp-Ala-Val-Gly-His-Leu-psi-Leu-NH2], the “other behavioral measures (sedation)” value in data set [1] is given as “did not alter”. In addition, the adverse events result in data set [2] was “only local (nodes and pruritus)”.
